# US4684664A, “Derivatives of β-(4-isocyano-1,2,3,4-diepoxycyclopentyl) acrylic acid” (Kureha Kagaku Kogyo Kabushiki Kaisha, priority 1984, dated 1987)
# What was measured:
# Format in all cases: cell-based
# [1] = tested on: Escherichia coli NIHJ-JC-2; experiment: Antibacterial activity, agar-dilution MIC, organism No. 5
# Method in brief: (§1)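 Values come from agar-dilution plates prepared with bouillon agar; they represent the least specimen concentration (μg/ml of medium) giving inhibition.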
# [2] = tested on: Staphylococcus aureus FDA 209PJc-1; experiment: Antibacterial activity, agar-dilution MIC, organism No. 1
# Method in brief: as §1
# [3] = tested on: Proteus mirabilis IFO 3849; experiment: Antibacterial activity, agar-dilution MIC, organism No. 19
# Method in brief: as §1
# [4] = tested on: Salmonella shottmuelleri 8006; experiment: Antibacterial activity, agar-dilution MIC, organism No. 11
# Method in brief: as §1
# [5] = tested on: Streptococcus faecium IFO 3826; experiment: Antibacterial activity, agar-dilution MIC, organism No. 27
# Method in brief: as §1
# [6] = tested on: Candida albicans IAM 4905; experiment: Antifungal activity, agar-dilution MIC, organism No. 29
# Method in brief: as §1
# [7] = tested on: Klebsiella pneumoniae PCI-602; experiment: Antibacterial activity, agar-dilution MIC, organism No. 7
# Method in brief: as §1
# [8] = tested on: Salmonella typhimurium IID 971; experiment: Antibacterial activity, agar-dilution MIC, organism No. 8
# Method in brief: as §1
# [9] = tested on: Staphylococcus aureus MS 353; experiment: Antibacterial activity, agar-dilution MIC, organism No. 3
# Method in brief: as §1
# [10] = tested on: Micrococcus luteus ATCC 9341; experiment: Antibacterial activity, agar-dilution MIC, organism No. 25
# Method in brief: as §1
# [11] = tested on: Streptococcus pyogenes IFO 3340; experiment: Antibacterial activity, agar-dilution MIC, organism No. 26
# Method in brief: as §1
# [12] = tested on: Pseudomonas aeruginosa IFO 3445; experiment: Antibacterial activity, agar-dilution MIC, organism No. 15
# Method in brief: as §1
# [13] = tested on: Salmonella paratyphi-A 1015; experiment: Antibacterial activity, agar-dilution MIC, organism No. 10
# Method in brief: as §1
# [14] = tested on: Proteus rettgeri IFO 3850; experiment: Antibacterial activity, agar-dilution MIC, organism No. 22
# Method in brief: as §1
# [15] = tested on: Streptococcus pyogenes Cook; experiment: Antibacterial activity, agar-dilution MIC, organism No. 4
# Method in brief: as §1
# Proteus vulgaris OX-19 = experiment: Antibacterial activity, agar-dilution MIC, organism No. 20
# Method in brief: as §1
# [16] = tested on: Salmonella enteritidis G 14; experiment: Antibacterial activity, agar-dilution MIC, organism No. 12
# Method in brief: as §1
# Salmonella typhi 901 = experiment: Antibacterial activity, agar-dilution MIC, organism No. 9
# Method in brief: as §1
# Proteus vulgaris HX-19 = experiment: Antibacterial activity, agar-dilution MIC, organism No. 21
# Method in brief: as §1
# [17] = tested on: Pseudomonas aeruginosa NCTC 10490; experiment: Antibacterial activity, agar-dilution MIC, organism No. 16
# Method in brief: as §1
# [18] = tested on: Escherichia coli K12 C600 IAM 1264; experiment: Antibacterial activity, agar-dilution MIC, organism No. 6
# Method in brief: as §1
# Enterobacter cloacae 963 = experiment: Antibacterial activity, agar-dilution MIC, organism No. 24
# Method in brief: as §1
# [19] = tested on: Staphylococcus aureus Terajima; experiment: Antibacterial activity, agar-dilution MIC, organism No. 2
# Method in brief: as §1
# [20] = tested on: Serratia marcescens IAM 1184; experiment: Antibacterial activity, agar-dilution MIC, organism No. 13
# Description: Agar-dilution method was used for determination of the antibacterial activity and antifungal activity while using bouillon-agar culture medium, and the minimum inhibitory concentration of the specimen was expressed by μg/ml of the culture medium.
# [21] = tested on: Enterobacter aerogenes ATCC 13048; experiment: Antibacterial activity, agar-dilution MIC, organism No. 23
# Method in brief: as §1
# [22] = tested on: Bacillus subtilis ATCC 6633; experiment: Antibacterial activity, agar-dilution MIC, organism No. 14
# Method in brief: as §1
# [23] = tested on: Proteus morganii IFO 3848; experiment: Antibacterial activity, agar-dilution MIC, organism No. 18
# Method in brief: as §1
# [24] = tested on: Aspergillus niger IFO 6342; experiment: Antifungal activity, agar-dilution MIC, organism No. 30
# Method in brief: as §1
# [25] = tested on: Pseudomonas aeruginosa PAO 1; experiment: Antibacterial activity, agar-dilution MIC, organism No. 17
# Method in brief: as §1
structure (smiles),measurement,setting,value
[C-]#[N+]C12CC3(/C=C/C(=O)NCCO)OC3C1O2 (stereo not shown) [compound 68],MIC,"[1]; Escherichia coli, NIHJJC2, read-out: Minimum Inhibitory Concentration",25 µg/mL
same,MIC,"[2]; Staphylococcus aureus, FDA209PJC1, read-out: Minimum Inhibitory Concentration",3.13 µg/mL
same,MIC,"[3]; Proteus mirabilis, IFO3849, read-out: Minimum Inhibitory Concentration",200 µg/mL
same,MIC,"[4]; Salmonella, 8006, read-out: Minimum Inhibitory Concentration",25 µg/mL
same,MIC,"[5]; Enterococcus faecium, IFO3826, read-out: Minimum Inhibitory Concentration",200 µg/mL
same,MIC,"[6]; Candida albicans, IAM4905, read-out: Minimum Inhibitory Concentration",100 µg/mL
same,MIC,"[7]; Klebsiella pneumoniae, PCI602, read-out: Minimum Inhibitory Concentration",200 µg/mL
same,MIC,"[8]; Salmonella enterica, read-out: Minimum Inhibitory Concentration",25 µg/mL
same,MIC,"[9]; Staphylococcus aureus, MS353, read-out: Minimum Inhibitory Concentration",6.25 µg/mL
same,MIC,"[10]; Micrococcus luteus, ATCC9341, read-out: Minimum Inhibitory Concentration",6.25 µg/mL
same,MIC,"[11]; Streptococcus pyogenes, IFO3340, read-out: Minimum Inhibitory Concentration",12.5 µg/mL
same,MIC,"[12]; Pseudomonas aeruginosa, IFO3445, read-out: Minimum Inhibitory Concentration",> 200 µg/mL
same,MIC,"[13]; Salmonella enterica, PARATYPHI, read-out: Minimum Inhibitory Concentration",12.5 µg/mL
same,MIC,"[14]; Providencia rettgeri, IFO3850, read-out: Minimum Inhibitory Concentration",200 µg/mL
same,MIC,"[15]; Streptococcus pyogenes, read-out: Minimum Inhibitory Concentration",200 µg/mL
same,MIC,"Proteus vulgaris OX-19; Proteus vulgaris, OX19, read-out: Minimum Inhibitory Concentration",12.5 µg/mL
same,MIC,"[16]; Salmonella enterica, ENTERITIDIS, read-out: Minimum Inhibitory Concentration",6.25 µg/mL
same,MIC,"Salmonella typhi 901; Salmonella enterica, TYPHI, read-out: Minimum Inhibitory Concentration",6.25 µg/mL
same,MIC,"Proteus vulgaris HX-19; Proteus vulgaris, HX19, read-out: Minimum Inhibitory Concentration",6.25 µg/mL
same,MIC,"[17]; Pseudomonas aeruginosa, NCTC10490, read-out: Minimum Inhibitory Concentration",> 200 µg/mL
same,MIC,"[18]; Escherichia coli, IAM1264, read-out: Minimum Inhibitory Concentration",25 µg/mL
same,MIC,"Enterobacter cloacae 963; Enterobacter cloacae, 963, read-out: Minimum Inhibitory Concentration",> 200 µg/mL
same,MIC,"[19]; Staphylococcus aureus, read-out: Minimum Inhibitory Concentration",25 µg/mL
same,MIC,"[20]; Serratia marcescens, IAM1184, read-out: Minimum Inhibitory Concentration",100 µg/mL
same,MIC,"[21]; Klebsiella aerogenes, ATCC13048, read-out: Minimum Inhibitory Concentration",> 200 µg/mL
same,MIC,"[22]; Bacillus subtilis, ATCC6633, read-out: Minimum Inhibitory Concentration",100 µg/mL
same,MIC,"[23]; Morganella morganii, IFO3848, read-out: Minimum Inhibitory Concentration",6.25 µg/mL
same,MIC,"[24]; Aspergillus niger, IFO6342, read-out: Minimum Inhibitory Concentration",100 µg/mL
same,MIC,"[25]; Pseudomonas aeruginosa, PAO1, read-out: Minimum Inhibitory Concentration",> 200 µg/mL
[C-]#[N+]C12CC3(/C=C/C(=O)NC4OC(COC(C)=O)C(OC(C)=O)C(OC(C)=O)C4OC(C)=O)OC3C1O2 (stereo not shown) [compound 69],Minimum Inhibitory Concentration,"[1]; Organism No. 5, bouillon-agar",> 200 µg/mL
same,Minimum Inhibitory Concentration,"[2]; Organism No. 1, bouillon-agar",100 µg/mL
same,Minimum Inhibitory Concentration,"[3]; Organism No. 19, bouillon-agar",> 200 µg/mL
same,Minimum Inhibitory Concentration,"[4]; Organism No. 11, bouillon-agar",> 200 µg/mL
same,Minimum Inhibitory Concentration,"[5]; Organism No. 27, bouillon-agar",> 200 µg/mL
same,Minimum Inhibitory Concentration,"[6]; Organism No. 29, bouillon-agar",100 µg/mL
same,Minimum Inhibitory Concentration,"[7]; Organism No. 7, bouillon-agar",> 200 µg/mL
same,Minimum Inhibitory Concentration,"[8]; Organism No. 8, bouillon-agar",> 200 µg/mL
same,Minimum Inhibitory Concentration,"[9]; Organism No. 3, bouillon-agar",100 µg/mL
same,Minimum Inhibitory Concentration,"[10]; Organism No. 25, bouillon-agar",100 µg/mL
same,Minimum Inhibitory Concentration,"[11]; Organism No. 26, bouillon-agar",50 µg/mL
same,Minimum Inhibitory Concentration,"[12]; Organism No. 15, bouillon-agar",> 200 µg/mL
same,Minimum Inhibitory Concentration,"[13]; Organism No. 10, bouillon-agar",200 µg/mL
same,Minimum Inhibitory Concentration,"[14]; Organism No. 22, bouillon-agar",> 200 µg/mL
same,Minimum Inhibitory Concentration,"[15]; Organism No. 4, bouillon-agar",> 200 µg/mL
same,Minimum Inhibitory Concentration,"Proteus vulgaris OX-19; Organism No. 20, bouillon-agar",> 200 µg/mL
same,Minimum Inhibitory Concentration,"[16]; Organism No. 12, bouillon-agar",> 200 µg/mL
same,Minimum Inhibitory Concentration,"Salmonella typhi 901; Organism No. 9, bouillon-agar",> 200 µg/mL
same,Minimum Inhibitory Concentration,"Proteus vulgaris HX-19; Organism No. 21, bouillon-agar",> 200 µg/mL
same,Minimum Inhibitory Concentration,"[17]; Organism No. 16, bouillon-agar",> 200 µg/mL
same,Minimum Inhibitory Concentration,"[18]; Organism No. 6, bouillon-agar",> 200 µg/mL
same,Minimum Inhibitory Concentration,"Enterobacter cloacae 963; Organism No. 24, bouillon-agar",> 200 µg/mL
same,Minimum Inhibitory Concentration,"[19]; Organism No. 2, bouillon-agar",> 200 µg/mL
same,Minimum Inhibitory Concentration,"[20]; Organism No. 13, bouillon-agar",> 200 µg/mL
same,Minimum Inhibitory Concentration,"[21]; Organism No. 23, bouillon-agar",> 200 µg/mL
same,Minimum Inhibitory Concentration,"[22]; Organism No. 14, bouillon-agar",> 200 µg/mL
same,Minimum Inhibitory Concentration,"[23]; Organism No. 18, bouillon-agar",> 200 µg/mL
same,Minimum Inhibitory Concentration,"[24]; Organism No. 30, bouillon-agar",100 µg/mL
same,Minimum Inhibitory Concentration,"[25]; Organism No. 17, bouillon-agar",> 200 µg/mL
